# Measured values reported in US11963960B2 (Flash Therapeutics, LLC, priority 2020, dated 2024).
# Where two headings read alike, the source gives them in different places.
# Target: N-terminally GST-tagged HCK (75-526) (Homo sapiens (Human), UniProt P08631)
# Experiment: HCK Kinase Assay (ProFluor Src-Family Kinase Assay)
# Format: biochemical
# Experimental: The procedure of ProFluor Src-Family Kinase Assay (Promega, Cat. No. V1271) was then followed. To the reaction was added 5 μL Protease solution and the mixture was incubated for 60 minutes at room temperature (22-25° C.), followed by 5 μL Stabilizer solution. The fluorescence signal was read on an Envision multilabel plate reader (Perkin Elmer). The R110 was then read at an excitation wavelength of 485 nm and an emission wavelength of 530 nm. The AMC signal was read at an excitation wavelength of 355 nm and an emission wavelength of 460 nm.
# [1] = HCK inhibitory activity, 50 μM ATP, read-out: HCK Activity
# N-terminally GST-tagged HCK (75-526), sequence (P08631 75-526): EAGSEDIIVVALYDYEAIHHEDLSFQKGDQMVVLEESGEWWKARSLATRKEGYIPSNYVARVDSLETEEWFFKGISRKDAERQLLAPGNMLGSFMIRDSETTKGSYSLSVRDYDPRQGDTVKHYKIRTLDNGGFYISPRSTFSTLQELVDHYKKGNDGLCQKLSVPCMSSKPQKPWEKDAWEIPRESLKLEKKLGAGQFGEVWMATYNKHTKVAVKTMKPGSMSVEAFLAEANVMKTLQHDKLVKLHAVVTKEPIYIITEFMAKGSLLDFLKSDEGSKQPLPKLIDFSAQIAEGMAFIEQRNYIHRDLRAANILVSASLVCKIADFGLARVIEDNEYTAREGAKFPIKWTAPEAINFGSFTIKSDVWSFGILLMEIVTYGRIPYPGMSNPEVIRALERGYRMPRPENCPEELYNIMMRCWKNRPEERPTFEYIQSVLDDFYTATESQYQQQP
Compound,IC50 [1],IC50
CN1CCN([C@H]2CC[C@H](c3cc(-c4ccc(NC(=O)Nc5cc(C(C)(C)C)on5)cc4)c4c(N)ncnn43)CC2)CC1 [Example 171],< 50 nM,
"CC1(N)CCN([C@H]2CC[C@H](n3cc(-c4ccc(Oc5ccccc5)cc4)c4c(N)ncnc43)CC2)CC1 [Example 50, 7-((trans)-4-(4-amino-4-methylpiperidin-1-yl)cyclohexyl)-5-(4-phenoxyphenyl)-7H-pyrrolo[2,3-d]pyrimidin-4-amine]",50 to 250 nM,
"C[C@@H]1CN([C@H]2CC[C@H](n3nc(-c4ccc(Oc5ccccc5)cc4)c4c(N)ncnc43)CC2)CCN1 [Example 14, 1-((trans)-4-((R)-3-methylpiperazin-1-yl)cyclohexyl)-3-(4-phenoxyphenyl)-1H-pyrazolo[3,4-d]pyrimidin-4-amine]",< 50 nM,
"CN1CCC([C@H]2OC[C@H](n3cc(-c4ccc(Oc5ccccc5)cc4)c4c(N)ncnc43)CO2)CC1 [Example 145, 7-((2r,5r)-2-(1-Methylpiperidin-4-yl)-1,3-dioxan-5-yl)-5-(4-phenoxyphenyl)-7H-pyrrolo[2,3-d]pyrimidin-4-amine]",< 50 nM,
"CN1CCN([C@H]2CC[C@H](c3cc(-c4ccc(Oc5ccccc5)cc4)c4c(N)ncnn43)CC2)CC1 [Example 168, 7-((trans)-4-(4-Methylpiperazin-1-yl)cyclohexyl)-5-(4-phenoxyphenyl)pyrrolo[2,1-f][1,2,4]triazin-4-amine]",< 50 nM,
"CN1CCN([C@H]2CC[C@H](n3cc(-c4ccc(Oc5ccccc5)cc4)c4c(N)ncnc43)CC2)CC1(C)C [Example 27, 5-(4-phenoxyphenyl)-7-((trans)-4-(3,3,4-trimethylpiperazin-1-yl)cyclohexyl)-7H-pyrrolo[2,3-d] pyrimidin-4-amine]",< 50 nM,
"CN1CCN([C@H]2CC[C@H](c3nc(-c4ccc(NC(=O)Nc5cc(C(C)(C)C)on5)cc4)c4c(N)nccn43)CC2)CC1 [Example 175, 1-(4-(8-amino-3-((trans)-4-(4-methylpiperazin-1-yl)cyclohexyl)imidazo[1,5-a]pyrazin-1-yl)phenyl)-3-(5-(tert-butyl)isoxazol-3-yl)urea]",< 50 nM,
"CN1CCCC(N2CCC(n3cc(-c4ccc(Oc5ccccc5)cc4)c4c(N)ncnc43)CC2)C1 (stereo not shown) [Example 160, 7-(1′-methyl-[1,3′-bipiperidin]-4-yl)-5-(4-phenoxyphenyl)-7H-pyrrolo [2,3-d] pyrimidin-4-amine]",50 to 250 nM,
"Nc1ncnc2c1c(-c1ccc(Oc3ccccc3)cc1)cn2C1CCN(C2CCCC(N)C2)CC1 (stereo not shown) [Example 159, 7-(1-(3-aminocyclohexyl)piperidin-4-yl)-5-(4-phenoxyphenyl)-7H-pyrrolo[2,3-d]pyrimidin-4-amine]",< 50 nM,
"CN(C)[C@@H]1CN([C@H]2CC[C@H](n3cc(-c4ccc(Oc5ccccc5)cc4F)c4c(N)ncnc43)CC2)C[C@H]1O [Example 73, (3R,4R)-1-((trans)-4-(4-amino-5-(2-fluoro-4-phenoxyphenyl)-7H-pyrrolo[2,3-d]pyrimidin-7-yl)cyclohexyl)-4-(dimethylamino)pyrrolidin-3-ol]",< 50 nM,
"Nc1ncnc2c1c(-c1ccc(Oc3ccccc3)cc1)cn2[C@H]1CC[C@@H](N2CCC(S(N)(=O)=O)CC2)CC1 [Example 70, 1-((cis)-4-(4-amino-5-(4-phenoxyphenyl)-7H-pyrrolo[2,3-d]pyrimidin-7-yl)cyclohexyl)piperidine-4-sulfonamide]",50 to 250 nM,
"CN1CC2(C1)CN([C@H]1CC[C@H](n3cc(-c4ccc(Oc5ccccc5)cc4)c4c(N)ncnc43)CC1)C2 [Example 79, 7-((trans)-4-(6-methyl-2,6-diazaspiro[3.3]heptan-2-yl)cyclohexyl)-5-(4-phenoxyphenyl)-7H-pyrrolo[2,3-d]pyrimidin-4-amine]",50 to 250 nM,
"Nc1ncnc2c1c(-c1ccc(Oc3ccccc3)cc1)cn2[C@H]1CC[C@H](N2CCS(=O)(=O)CC2)CC1 [Example 65, 4-((trans)-4-(4-amino-5-(4-phenoxyphenyl)-7H-pyrrolo[2,3-d]pyrimidin-7-yl)cyclohexyl)thiomorpholine 1,1-dioxide]",50 to 250 nM,
"C[N+]1(C)CCN([C@H]2CC[C@H](n3nc(-c4ccc(Oc5ccccc5)cc4F)c4c(N)ncnc43)CC2)CC1 [Example 7, 4-((trans)-4-(4-amino-3-(2-fluoro-4-phenoxyphenyl)-1H-pyrazolo[3,4-d]pyrimidin-1-yl)cyclohexyl)-1,1-dimethylpiperazin-1-ium]",< 50 nM,
"Nc1ncnc2c1c(-c1ccc(Oc3ccccc3)cc1F)nn2[C@H]1CC[C@@H](N2CCN(CCO)CC2)CC1 [Example 11, 2-(4-((cis)-4-(4-amino-3-(2-fluoro-4-phenoxyphenyl)-1H-pyrazolo[3,4-d]pyrimidin-1-yl)cyclohexyl)piperazin-1-yl)ethanol]",50 to 250 nM,
"Nc1ncnc2c1c(-c1ccc(Oc3ccccc3)cc1)cn2[C@H]1CC[C@H](N2C[C@@H](O)[C@@H](O)C2)CC1 [Example 75, (3R,4S)-1-((trans)-4-(4-amino-5-(4-phenoxyphenyl)-7H-pyrrolo[2,3-d]pyrimidin-7-yl)cyclohexyl)pyrrolidine-3,4-diol]",50 to 250 nM,

Compound,IC50 [1],IC50
"[2H]C([2H])([2H])N1CCN([C@H]2CC[C@H](n3cc(-c4ccc(Oc5ccccc5)cc4)c4c(N)ncnc43)CC2)CC1 (single isomer, unassigned) [Example 3, 7-((trans)-4-(4-(trideuteriomethyl)piperazin-1-yl)cyclohexyl)-5-(4-phenoxyphenyl)-7H-pyrrolo[2,3-d]pyrimidin-4-amine]",,< 50 nM
"CCc1cc(NC(=O)Nc2ccc(-c3cn([C@H]4CC[C@H](N5CCN(C)CC5)CC4)c4ncnc(N)c34)cc2)on1 [Example 118, 1-(4-(4-amino-7-((trans)-4-(4-methylpiperazin-1-yl)cyclohexyl)-7H-pyrrolo[2,3-d]pyrimidin-5-yl)phenyl)-3-(3-ethylisoxazol-5-yl)urea]",50 to 250 nM,
"[2H]C([2H])([2H])N1C([2H])([2H])C([2H])([2H])N([C@H]2CC[C@@H](n3cc(-c4ccc(Oc5ccccc5)cc4)c4c(N)ncnc43)CC2)C([2H])([2H])C1([2H])[2H] (single isomer, unassigned) [Example 6, 7-((cis)-4-(4-d3-methyl-d8-piperazin-1-yl)cyclohexyl)-5-(4-phenoxyphenyl)-7H-pyrrolo[2,3-d]pyrimidin-4-amine]",,< 50 nM
"CN1CCN([C@H]2CC[C@@H](c3nc(-c4ccc(Oc5ccccc5)cc4F)c4c(N)ncnn43)CC2)CC1 [Example 164, 5-(2-Fluoro-4-phenoxyphenyl)-7-((cis)-4-(4-methylpiperazin-1-yl)cyclohexyl)imidazo[5,1-f][1,2,4]triazin-4-amine]",50 to 250 nM,
"Nc1ncnc2c1c(-c1ccc(Oc3ccccc3)cc1)cn2[C@H]1CC[C@@H](N2CCC[C@H](N)C2)CC1 [Example 57, 7-((cis)-4-((S)-3-aminopiperidin-1-yl)cyclohexyl)-5-(4-phenoxyphenyl)-7H-pyrrolo[2,3-d]pyrimidin-4-amine]",< 50 nM,
"CN1CCN([C@H]2CC[C@H](n3cc(-c4ccc(Oc5c(F)cccc5F)cc4)c4c(N)ncnc43)CC2)CC1 [Example 109, 5-(4-(2,6-difluorophenoxy)phenyl)-7-((trans)-4-(4-methylpiperazin-1-yl)cyclohexyl)-7H-pyrrolo[2,3-d]pyrimidin-4-amine]",< 50 nM,
"C[C@@H]1CN([C@H]2CC[C@H](n3cc(-c4ccc(Oc5ccccc5)cc4)c4c(N)ncnc43)CC2)CCN1 [Example 12, 7-((trans)-4-((R)-3-methylpiperazin-1-yl)cyclohexyl)-5-(4-phenoxyphenyl)-7H-pyrrolo[2,3-d]pyrimidin-4-amine]",250 to 10000 nM,
"COc1cc(-c2cn(C3CCN(C4CCN(C)CC4)CC3)c3ncnc(N)c23)ccc1Oc1ccccc1 [Example 149, 5-(3-methoxy-4-phenoxyphenyl)-7-(1′-methyl-[1,4′-bipiperidin]-4-yl)-7H-pyrrolo[2,3-d]pyrimidin-4-amine]",< 50 nM,
"CN[C@@H]1CCCN([C@H]2CC[C@@H](n3cc(-c4ccc(Oc5ccccc5)cc4)c4c(N)ncnc43)CC2)C1 [Example 61, 7-((cis)-4-((R)-3-(methylamino)piperidin-1-yl)cyclohexyl)-5-(4-phenoxyphenyl)-7H-pyrrolo[2,3-d]pyrimidin-4-amine]",< 50 nM,
CN1CCN(C2CCC(n3nc(-c4ccc(Oc5ccccc5)cc4F)c4c(N)ncnc43)C2)CC1 (stereo not shown) [Example 135],50 to 250 nM,
"CN1CCC2(CCC(n3cc(-c4ccc(Oc5ccccc5)cc4)c4c(N)ncnc43)CC2)CC1 [Example 142, 7-(3-methyl-3-azaspiro[5.5]undecan-9-yl)-5-(4-phenoxyphenyl)-7H-pyrrolo[2,3-d]pyrimidin-4-amine]",< 50 nM,
"Nc1ncnc2c1c(-c1ccc(Oc3ccccc3)cc1)cn2[C@H]1CC[C@@H](N2CCC(N)CC2)CC1 [Example 53, 7-((cis)-4-(4-aminopiperidin-1-yl)cyclohexyl)-5-(4-phenoxyphenyl)-7H-pyrrolo[2,3-d]pyrimidin-4-amine]",50 to 250 nM,
"CN1CCN([C@H]2CC[C@H](n3cc(-c4ccc(Oc5ccccc5)cc4)c4c(N)ncnc43)CC2)CC1CO (stereo partly drawn) [Example 33, (4-((trans)-4-(4-amino-5-(4-phenoxyphenyl)-7H-pyrrolo[2,3-d]pyrimidin-7-yl)cyclohexyl)-1-methylpiperazin-2-yl)methanol]",< 50 nM,
"CN1CCC(N2CCC(n3nc(-c4ccc(NC(=O)Nc5cc(C(C)(C)C)on5)cc4)c4c(N)ncnc43)CC2)CC1 [Example 148, 1-(4-(4-Amino-1-(1′-methyl-[1,4′-bipiperidin]-4-yl)-1H-pyrazolo[3,4-d]pyrimidin-3-yl)phenyl)-3-(5-(tert-butyl)isoxazol-3-yl)urea]",50 to 250 nM,
"Nc1ncnc2c1c(-c1ccc(Oc3ccccc3)cc1)cn2C1CCN(C2CCNC(CO)C2)CC1 (stereo not shown) [Example 157, (4-(4-amino-5-(4-phenoxyphenyl)-7H-pyrrolo[2,3-d]pyrimidin-7-yl)-[1,4′-bipiperidin]-2′-yl)methanol]",< 50 nM,
